Measured values as given in article PMC9808420 (Biomedicine & Pharmacotherapy, 2023).
Counter-ions that a name gives are not always drawn. Like-named read-outs stand apart in the source and are kept apart here.

Legend:
[1] = tested on: VSV-G pseudotyped lentivirus; experiment: microbe, parasite or virus in culture; format: cell-based; details: read-out: EC50 (VSVG)
[2] = tested on: SARS-CoV-2 pseudovirus; experiment: organism not typed; format: cell-based; details: read-out: EC50 (S)
[3] = biological target: RBD domain of S protein (Severe acute respiratory syndrome coronavirus 2, UniProt P0DTC2); experiment: biochemical; format: binding, SARS-CoV-2
[4] = biological target: SARS-CoV-2 Spike protein RBD and human ACE2 (Severe acute respiratory syndrome coronavirus 2, UniProt P0DTC2); format: binding, SARS-CoV-2; human

Row | Compound | EC50 ([1]; Lentivirus) [µM] | EC50 ([2]; 48 h) [µM] | Kd [3] [µM] | EC50 [1] [µM] | EC50 [2] [µM] | Kd ([3]; read-out: KD (equilibrium dissociation constant)) [µM] | Blocking of binding of SARS-CoV-2 RBD to ACE2 in vitro [4]
1 | CN[C@H](CC(C)C)C(=O)N[C@H]1C(=O)N[C@@H](CC(N)=O)C(=O)N[C@H]2C(=O)N[C@H]3C(=O)N[C@H](C(=O)N[C@H](C(=O)O)c4cc(O)cc(O)c4-c4cc3ccc4O)[C@H](O)c3ccc(c(Cl)c3)Oc3cc2cc(c3O[C@@H]2O[C@H](CO)[C@@H](O)[C@H](O)[C@H]2O[C@H]2C[C@](C)(N)[C@H](O)[C@H](C)O2)Oc2ccc(cc2Cl)[C@H]1O [Vancomycin hydrochloride] | > 100 | > 100 | 1600 |  |  |  | 
2 | Teicoplanin |  |  |  | > 100 | > 100 | 673 | fail to block binding
